Laboratory results published in ChEMBL document CHEMBL1201862, “PubChem BioAssay data set” (2004).
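All cell lines were grown in 96-well plates and treated with compound for 48 hours. The concentration for 50% growth inhibition is given as GI50.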 Active and inactive are the calls of the source. Rule as the data show it: active = GI50 up to about 1.1 µM and inactive = higher.

Legend:
Experiment in all cases: NCI-60 cell line screen, 48 h
[1] = tested on: A549
[2] = tested on: CAKI-1
[3] = tested on: EKVX
[4] = tested on: HCT-116
[5] = tested on: HL-60
[6] = tested on: HOP-92
[7] = tested on: KM-20L2
[8] = tested on: LOX IMVI
[9] = tested on: MOLT-4
[10] = tested on: NCI-H226
[11] = tested on: NCI-H23
[12] = tested on: NCI-H460
[13] = tested on: SK-MEL-5
[14] = tested on: SN12C
[15] = tested on: SNB-75
[16] = tested on: SR
[17] = tested on: SW-620
[18] = tested on: TK-10
[19] = tested on: MDA-N
[20] = tested on: T47D

Measured: GI50

C=C(C)C1CC=C(C(=O)O)CC1 (centres undefined)
inactive: [1] 1210 µM | [2] 1300 µM | [3] 2360 µM | [4] 793 µM | [5] 906 µM | [6] 1440 µM | [7] 1410 µM | [8] 1220 µM | [9] 2330 µM | [10] 1040 µM | [11] 968 µM | [12] 1360 µM | [13] 752 µM | [14] 1570 µM | [15] 1200 µM | [16] 1160 µM | [17] 1740 µM | [18] 1580 µM

O=C(/C=C/c1ccc(OCC(=O)N2CCN(c3ccccc3)CC2)cc1)c1ccc(Cl)cc1
inactive: [1] 38.7 µM | [2] 78.5 µM | [3] > 60.7 µM | [4] 54.5 µM | [5] 98.2 µM | [6] 13.3 µM | [7] > 100 µM | [8] > 100 µM | [19] > 100 µM | [9] > 100 µM | [10] 50.8 µM | [11] 50.4 µM | [12] > 94.2 µM | [13] 54.2 µM | [14] 89.5 µM | [15] 12 µM | [16] > 100 µM | [17] > 100 µM | [20] 52.7 µM | [18] 31.6 µM

Cc1cc(=O)n(-c2ccccc2)c(=O)o1
inactive: [1] > 100 µM | [2] > 100 µM | [3] > 100 µM | [4] > 100 µM | [5] > 100 µM | [6] > 100 µM | [7] > 100 µM | [8] 32.8 µM | [9] > 100 µM | [10] > 100 µM | [11] > 100 µM | [12] > 100 µM | [13] > 100 µM | [14] > 100 µM | [15] > 100 µM | [16] > 100 µM | [17] > 100 µM | [18] > 100 µM

CCOC12OC3=C(CC1CC1=C(CCC1=O)O2)C(=O)CC3 (centres undefined)
inactive: [1] > 100 µM | [2] > 100 µM | [3] > 100 µM | [4] > 100 µM | [5] > 100 µM | [6] > 100 µM | [7] > 100 µM | [8] > 100 µM | [9] > 100 µM | [10] > 100 µM | [11] > 100 µM | [12] > 100 µM | [13] > 100 µM | [14] > 100 µM | [15] > 100 µM | [16] > 100 µM | [17] > 100 µM | [18] > 100 µM
